From ChEMBL document CHEMBL2074399, “Effects of steroids and verapamil on P-glycoprotein ATPase activity: progesterone, desoxycorticosterone, corticosterone and verapamil are mutually non-exclusive modulators” (Biochem J, 1996)

Molecular target: ATP-dependent translocase ABCB1 (Homo sapiens, UniProt P08183)
Experiment: TP_TRANSPORTER: inhibition of Verapamil stimulated ATP hydrolysis (Verapamil: 2 uM, Corticosterone: 800 uM) in membrane vesicles from DC-3F/ADX cells
Format: functional, cell membranes, Membrane vesicle
Conditions: hamster

Chain of ATP-dependent translocase ABCB1 (P08183 whole entry): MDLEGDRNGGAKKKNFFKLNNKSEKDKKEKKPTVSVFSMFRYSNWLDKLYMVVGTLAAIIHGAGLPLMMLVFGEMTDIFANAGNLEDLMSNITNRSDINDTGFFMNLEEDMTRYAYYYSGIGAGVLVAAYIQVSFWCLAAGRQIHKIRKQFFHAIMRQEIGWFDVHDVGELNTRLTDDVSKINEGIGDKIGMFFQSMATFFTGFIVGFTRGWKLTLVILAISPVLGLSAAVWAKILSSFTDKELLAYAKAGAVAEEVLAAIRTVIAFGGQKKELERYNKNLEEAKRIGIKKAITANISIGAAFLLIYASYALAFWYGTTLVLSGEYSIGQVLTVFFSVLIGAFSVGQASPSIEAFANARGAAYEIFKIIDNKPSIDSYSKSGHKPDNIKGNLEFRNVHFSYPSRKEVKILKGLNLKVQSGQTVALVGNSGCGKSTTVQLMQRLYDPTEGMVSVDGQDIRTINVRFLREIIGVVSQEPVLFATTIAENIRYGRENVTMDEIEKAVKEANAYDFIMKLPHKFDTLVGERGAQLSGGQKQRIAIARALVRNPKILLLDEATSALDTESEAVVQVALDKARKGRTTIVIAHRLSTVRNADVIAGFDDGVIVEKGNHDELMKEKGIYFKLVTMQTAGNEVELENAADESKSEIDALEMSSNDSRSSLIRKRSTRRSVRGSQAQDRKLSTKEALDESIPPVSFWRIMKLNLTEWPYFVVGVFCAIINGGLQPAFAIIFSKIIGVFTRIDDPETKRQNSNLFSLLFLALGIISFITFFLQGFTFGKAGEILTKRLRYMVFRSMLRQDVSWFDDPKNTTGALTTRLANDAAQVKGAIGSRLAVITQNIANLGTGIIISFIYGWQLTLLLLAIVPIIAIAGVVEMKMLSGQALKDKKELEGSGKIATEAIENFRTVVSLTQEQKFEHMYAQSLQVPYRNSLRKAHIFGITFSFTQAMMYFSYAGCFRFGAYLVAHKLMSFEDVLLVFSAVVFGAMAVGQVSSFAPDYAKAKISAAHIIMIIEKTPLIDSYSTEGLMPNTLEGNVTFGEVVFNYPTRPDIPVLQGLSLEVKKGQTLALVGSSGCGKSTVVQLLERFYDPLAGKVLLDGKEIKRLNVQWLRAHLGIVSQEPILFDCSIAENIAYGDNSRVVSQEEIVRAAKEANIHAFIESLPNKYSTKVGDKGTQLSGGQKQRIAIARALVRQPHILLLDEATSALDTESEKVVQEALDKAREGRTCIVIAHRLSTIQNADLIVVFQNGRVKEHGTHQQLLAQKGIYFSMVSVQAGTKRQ

In the case of C[C@]12C[C@H](O)[C@H]3[C@@H](CCC4=CC(=O)CC[C@@]43C)[C@@H]1CC[C@@H]2C(=O)CO [CORTICOSTERONE], the Activity is reported as “inhibitor [+]”.
